# Measured values reported in article PMC6906431, “Selective small molecule PARG inhibitor causes replication fork stalling and cancer cell death” (Nature Communications, 2019).
# “And” between values parts separate entries of the source, which are not always exact repeats. Equal entries are not always repeated.
# How the values were obtained:
# PC3 cells [1] = test: Clonogenic survival assay; assay type: cell-based, human; details: PC3
# Method: (§1) Fig. 6 Selective inhibition of PARG by xanthine derivative JA2131. a Clonogenic survival assays of PC3, MDA-MB-231, and MCF-7 cells treated with PARGi. Cells were treated with either DMSO or 10 µM JA2131 for 2 h, irradiated with 3 Gy (MDA-MB-231 and MCF-7), 7 Gy (PC3) IR and grown for ~2 weeks, then colonies were fixed with methanol and stained with crystal violet. The results of three independent experiments are shown. Error bars = the standard error of the mean (SEM). b dose-response of JA2131 in MDA-MB-231 cells with and without IR. Cells were treated with designated concentrations of JA2131 for 2 h and then either left untreated or exposed to 3 Gy IR and allowed to recover for 1 h before lysis. Total protein was immunoblotted with anti-PAR antibody (upper panel), stripped and reprobed with anti-PCNA as a loading control. c MDA-MB-231 cells with stable scrambled shRNA (WT) or stable PARG shRNA, knockdown (KD), were treated with 5 μM JA2131 for 2 h, lysed and then total lysates were immunoblotted for anti-PAR (upper panel) followed by anti-PARG (upper middle panel), anti-PARP1 (lower middle panel) and anti-actin (bottom panel) antibody. […] Stable cells with scramble shRNA (control) and shPARG (PARG-KD) cells were treated with an increasing concentration of JA2131 for growth inhibitory IC50 determination. The data was normalized against 100% survival at the lowest inhibitor concentration. Error bars show the percent coefficient of variation. Equivalent concentrations of DMSO were used as a negative control. e The cytotoxicity of JA2131 along with PDD, Veliparib and Doxorubicin against MRC-5 cells. Error bars show the percent coefficient of variation. f CETSA for in-cell JA2131 target engagement. Normalized anti-PARG western blot intensities of three independent experiments were fitted as above and the estimated aggregation temperature (Tagg) is shown in the tabulated insert. Source Data are provided as a Source Data file.
# (§2) PC3, MDA-MB-231 cells were maintained in RPMI 1640, MCF-7 cells in Eagle’s Minimum Essential Medium (EMEM), MRC-5 cells in Eagle’s Minimum Essential Medium and Hela and U2OS cells in Dulbecco’s modified Eagle’s high glucose medium (DMEM) supplemented with 10% (vol/vol) fetal bovine serum (FBS) and 1% antibiotic/antimycotic (Lonza) in a humidified incubator with 10% CO2. All cell lines were purchased from ATCC and regularly checked for mycoplasma and cell authentication. SUM 149PT cells were cultured in F-12 Hams (Gibco) supplemented with 5% fetal bovine serum, insulin, and hydrocortisone. Colony formation assays were carried out in 6-well plates, 500 cells were used per well and following designated treatment, and colonies were grown for 2 weeks. Cells were fixed with methanol (100%), stained with crystal violet and analyzed using a GelCount instrument (Oxford Optronix Ltd). Crystal Violet C6158 was purchased from Sigma. PARG knockdown cells were generated by infecting MDA-MB-231 cells with shPARG lentiviral particles (sc-106355-V, Santa Cruz Biotechnology), which contain a pool of three shRNA plasmids. After 24 h infection, 3 µg/ml puromycin (Invitrogen) was added and antibiotic-resistant cells were further expanded and used for experimentation. Sequence-1; hairpin sequence: […], sense: […]tt, Antisense: […]tt. Sequence-2; hairpin sequence, […]-[…], sense: […]tt, antisense: […]tt. Sequence-3; hairpin sequence: […]-[…], sense: […]tt, antisense: […]-GGUUUCCtt. Control cells were generated using the same process except that scramble lentiviral particles with scrambled sequences were used (sc-108080).
# (§3) Supplementary Fig. 8: Clonogenic survival of cells in the presence of PARGi and PARPi (a)
# (§4) Clonogenic survival of PC3 cells in response to indicated compounds. ( b) Clonogenic survival of
# (§5) MDA-MB-231 cells in response to i ndicated compounds. (c) Clonogenic survival of MCF -7 cells
# (§6) in response to indicated compounds. […]
# MCF-7 cells = test: Clonogenic survival assay; assay type: cell-based, human
# Method: as §1, §2, §3, §4, §5, §6
# A172 glioblastoma cells = test: Sulforhodamine B (SRB) cytotoxicity assay
# Method: (§7) Normalized % viabilities are plotted against log concentration. Error bars show the percent coefficient of variation. […] Mann-Whitney test was used to generate the p-value. The DNA spread assay is the representation of two independently repeated experiments. Source Data are provided as a Source Data file.
# (§8) Cells were plated in 96-well plates, treated as designated in reduced 5% FBS and fixed with trichloroacetic acid after 72 h, as previously described by[43]. […] Colorimetric or fluorescence analysis was performed in a FlexStation 3, using SoftMax Pro 7.0, Molecular Devices. Normalized graphs were generated with Prism 8 software, non-linear 4-parameter data fitting was performed for IC50 calculation.
# PC3 cells [2] = test: Sulforhodamine B (SRB) cytotoxicity assay; details: 72 h, without IR
# [3] = Sulforhodamine B (SRB) cytotoxicity assay; assay type: cell-based, human; details: human, MRC-5 cells
# Method: as §1
# [4] = Sulforhodamine B (SRB) cytotoxicity assay; details: human, A172 glioblastoma cells
# Method: as §7, §8
smiles,measurement,setting,value
Cn1c(=S)c2[nH]c(SCCN3CCOCC3)nc2n(C)c1=O [JA-2131],"colony count (clonogenic survival, raw replicate data, Supplementary Figure 8)","PC3 cells [1]; Experiment-1, replicates 1-6",191 and 210 and 213 and 170 and 222 and 223
same,"colony count (clonogenic survival, raw replicate data, Supplementary Figure 8)","PC3 cells [1]; Experiment-2, replicates 1-6",174 and 164 and 144 and 181 and 152 and 125
same,"colony count (clonogenic survival, raw replicate data, Supplementary Figure 8)","PC3 cells [1]; Experiment-3, replicates 1-6",164 and 128 and 108 and 141 and 148 and 123
same,"colony count (clonogenic survival, raw replicate data, Supplementary Figure 8)","MCF-7 cells; Experiment-1, replicates 1-6",184 and 217 and 183 and 124 and 178 and 153
same,"colony count (clonogenic survival, raw replicate data, Supplementary Figure 8)","MCF-7 cells; Experiment-2, replicates 1-6",141 and 190 (2×) and 218 and 209 and 269
same,"colony count (clonogenic survival, raw replicate data, Supplementary Figure 8)","MCF-7 cells; Experiment-3, replicates 1-6",154 and 188 and 126 and 153 and 169 and 142
[NH2][Pt]1([NH2])[O]CC(=O)[O]1 [Nedaplatin],IC50,A172 glioblastoma cells; 72 h,67.6 ± 46.5 µM
same,Viability,"A172 glioblastoma cells; 72 h, log [concentration] μM 0.291",99.176%
same,Viability,"A172 glioblastoma cells; 72 h, log [concentration] μM 0.592",95.055%
same,Viability,"A172 glioblastoma cells; 72 h, log [concentration] μM 0.893",88.736%
same,Viability,"A172 glioblastoma cells; 72 h, log [concentration] μM 1.495",69.505%
same,Viability,"A172 glioblastoma cells; 72 h, log [concentration] μM 1.796",60.165%
same,Viability,"A172 glioblastoma cells; 72 h, log [concentration] μM 2.097",45.055%
same,Viability,"A172 glioblastoma cells; 72 h, log [concentration] μM 2.398",21.154%
same,Viability,"A172 glioblastoma cells; 72 h, log [concentration] μM 2.699",18.681%
same,Viability,"A172 glioblastoma cells; 72 h, log [concentration] μM 3",18.681%
same,Viability,"A172 glioblastoma cells; 72 h, log [concentration] μM -0.01",107.967%
same,Viability,"A172 glioblastoma cells; 72 h, log [concentration] μM -0.312",100%
same,IC50,PC3 cells [2],4.98 ± 0.2 µM
same,Viability,PC3 cells [2]; log [concentration] μM 0.291,99.072%
same,Viability,PC3 cells [2]; log [concentration] μM 0.592,89.849%
same,Viability,PC3 cells [2]; log [concentration] μM 0.893,9.664%
same,Viability,PC3 cells [2]; log [concentration] μM 1.194,8.121%
same,Viability,PC3 cells [2]; log [concentration] μM 1.495,6.671%
same,Viability,PC3 cells [2]; log [concentration] μM 1.796,7.309%
same,Viability,PC3 cells [2]; log [concentration] μM -0.01,100%
C[C@]1(c2nc3c(C(N)=O)cccc3[nH]2)CCCN1 [Veliparib],"viability at 72 h, 1.95 µM",[3]; log [concentration] μM 0.29,90.5%
same,"viability at 72 h, 3.89 µM",[3]; log [concentration] μM 0.59,94.5%
same,"viability at 72 h, 7.76 µM",[3]; log [concentration] μM 0.89,86%
same,"viability at 72 h, 15.5 µM",[3]; log [concentration] μM 1.19,85.3%
same,"viability at 72 h, 30.9 µM",[3]; log [concentration] μM 1.49,89%
same,"viability at 72 h, 63.1 µM",[3]; log [concentration] μM 1.8,77.6%
same,"viability at 72 h, 126 µM",[3]; log [concentration] μM 2.1,70.3%
same,"viability at 72 h, 251 µM",[3]; log [concentration] μM 2.4,58.2%
same,"viability at 72 h, 501 µM",[3]; log [concentration] μM 2.7,34.2%
same,"viability at 72 h, 0.977 µM",[3]; log [concentration] μM -0.01,89.2%
same,"viability at 72 h, 0.49 µM",[3]; log [concentration] μM -0.31,90.8%
same,"viability at 72 h, 0.245 µM",[3]; log [concentration] μM -0.61,100%
same,IC50,"A172 glioblastoma cells; Homo sapiens, A 172, 72 h",153 ± 44.2 µM
same,"viability at 72 h, 0.244 µM",[4],100%
same,"viability at 72 h, 0.488 µM",[4],104%
same,"viability at 72 h, 0.977 µM",[4],102%
same,"viability at 72 h, 1.95 µM",[4],106%
same,"viability at 72 h, 3.91 µM",[4],101%
same,"viability at 72 h, 7.82 µM",[4],104%
same,"viability at 72 h, 15.6 µM",[4],98.6%
same,"viability at 72 h, 31.3 µM",[4],94.1%
same,"viability at 72 h, 62.5 µM",[4],88.5%
same,"viability at 72 h, 125 µM",[4],69.1%
same,"viability at 72 h, 250 µM",[4],27.2%
same,"viability at 72 h, 500 µM",[4],15.4%
